Source: US20050009903A1, “CB2-selective cannabinoid analogues” (priority 2003, published 2005)
Where “and” joins values, the source holds several entries; their conditions need not be identical. Equal values may be shown once. Read-outs that look alike come from different tables or passages of the source.

Legend:
[1] = target: T1, CB2 receptor (Homo sapiens, UniProt P34972); test: [35S]GTPγS binding in human CB2 receptor-expressing CHO cell membranes; format: biochemical; parameters: expressed in transfected cells; settings: for efficacy in the [35S]GTPγS assay relative to CP-55,940: in words
[2] = target: T2, CB1 receptor (Rattus norvegicus, UniProt P20272); test: CB1 assay: displacement of [3H]CP-55,940 from rat brain membrane preparation; format: binding
T2 construct: from tissue; host or cells: rat whole brain, P2 membranes

[3] = target: T1, CB2 receptor; test: CB2 assay: displacement of [3H]CP-55,940 from cloned human CB2 receptor preparation (transfected HEK 293 cells); format: binding; parameters: expressed in transfected cells; settings: for selectivity for the CB2 receptor: CB2 over CB1 affinity; for Ratio CB17CB2 / Ratio CB1/CB2: ratio of Ki values
[4] = read-out: Emax relative to CP-55,940
[5] = rat brain membranes, read-out: Ki at CB1 receptor
[6] = cloned human CB2, read-out: Ki at CB2 receptor
[7] = read-out: CB1 (receptor affinity), Table 3, mean ± SEM, 3-(alkoxy-1-naphthoyl)indoles, the same values as Ki in nM
[8] = Ki at CB2 receptor, cloned human CB2
[9] = Table 1, mean ± SEM, rat brain membranes, [3H]CP 55,940, read-out: Ki CB1
[10] = Table 1, mean ± SEM, cloned human CB2, [3H]CP 55,940, read-out: Ki CB2
[11] = Table 2, mean ± SEM, 3-(alkyl-1-naphthoyl)indoles, read-out: Ki CB2
[12] = Table 2, mean ± SEM, 3-(alkyl-1-naphthoyl)indoles, read-out: Ki CB1
[13] = Table 3, mean ± SEM, 3-(alkoxy-1-naphthoyl)indoles, the same values as Ki in nM, read-out: CB1 (receptor affinity)
[14] = Table 3, mean ± SEM, 3-(alkoxy-1-naphthoyl)indoles, the same values as Ki in nM, read-out: CB2 (receptor affinity)

T1 sequence (P34972 whole entry): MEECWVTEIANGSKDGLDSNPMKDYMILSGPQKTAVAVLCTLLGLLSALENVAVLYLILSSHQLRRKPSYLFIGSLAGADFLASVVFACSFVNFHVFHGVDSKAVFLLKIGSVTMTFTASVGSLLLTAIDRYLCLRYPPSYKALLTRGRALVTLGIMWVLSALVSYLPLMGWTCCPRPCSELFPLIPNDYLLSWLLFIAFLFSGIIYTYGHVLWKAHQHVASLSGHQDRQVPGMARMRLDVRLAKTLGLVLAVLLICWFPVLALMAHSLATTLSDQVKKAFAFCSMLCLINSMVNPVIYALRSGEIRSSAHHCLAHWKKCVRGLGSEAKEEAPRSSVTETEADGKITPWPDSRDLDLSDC
T2 sequence (P20272 whole entry): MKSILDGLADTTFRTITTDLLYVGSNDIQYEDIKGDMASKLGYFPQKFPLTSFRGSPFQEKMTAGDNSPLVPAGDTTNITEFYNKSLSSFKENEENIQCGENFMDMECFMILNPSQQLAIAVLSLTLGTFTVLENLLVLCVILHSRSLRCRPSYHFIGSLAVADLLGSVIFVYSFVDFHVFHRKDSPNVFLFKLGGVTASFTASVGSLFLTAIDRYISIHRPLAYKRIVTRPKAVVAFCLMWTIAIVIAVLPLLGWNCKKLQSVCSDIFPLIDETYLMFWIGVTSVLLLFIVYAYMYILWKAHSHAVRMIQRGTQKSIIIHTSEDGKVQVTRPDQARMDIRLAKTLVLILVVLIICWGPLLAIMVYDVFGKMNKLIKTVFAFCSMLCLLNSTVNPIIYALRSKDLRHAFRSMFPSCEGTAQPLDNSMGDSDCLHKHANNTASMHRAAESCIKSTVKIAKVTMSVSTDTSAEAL

Molecule: CCCn1cc(C(=O)c2ccc(C)c3ccccc23)c2ccccc21 [JWH-120, 1-Propyl-3-(4-methyl-1-naphthoyl)indole]
- EC50 [1]: 5.1 ± 1.6 nM
- efficacy in the [35S]GTPγS assay relative to CP-55,940 [1]: partial agonists
- Emax ([1]; read-out: Emax (% CP-55940)): 78.1 ± 10.7%
- Emax [1, 4]: 78.1 ± 10.7%
- Ki [2, 5]: 1050 ± 31 nM
- selectivity for the CB2 receptor [3]: 173 fold
- Ratio CB17CB2 ([3]; Table 2): 173
- Ki [3, 6]: 6.1 ± 7 nM

Molecule: 1-Methoxy-3-(1′,1′-dimethylhexyl)-Δ^8-THC [Compound 6e]
- EC50 ([1]; Table 4, mean ± SEM, human CB2 CHO cells, read-out: EC50 GTPγS binding): 4.6 ± 2 nM
- Emax (% CP-55940) ([1]; Table 4, mean ± SEM, per cent relative to 3 μM CP-55,940): 75.7 ± 8.3 % CP-55940

Molecule: CCCn1c(C)c(C(=O)c2c(OC)ccc3ccccc23)c2ccccc21 [JWH-266, 2-Methyl-1-propyl-3-(2-methoxy-1-naphthoyl)indole]
- Ki [2]: > 10000 nM
- Ki [2, 7]: > 10000 nM
- Ki [3, 8]: 455 ± 55 nM

Molecule: CCCCCn1c(C)c(C(=O)c2ccc(CCCC)c3ccccc23)c2ccccc21 [JWH-242, 2-Methyl-1-pentyl-3-(4-butyl-1-naphthoyl)indole]
- Ki [2, 5]: 42 ± 9 nM
- Ratio CB17CB2 ([3]; Table 2): 6.5
- Ki [3, 6]: 6.5 ± 0.3 nM

Molecule: CCCCC(C)(C)c1ccc2c(c1)OC(C)(C)C1CC=C(CO)CC21 (centres unmarked) [Compound 9d, 1-Deoxy-3-(1′,1′-dimethylpentyl)-11-hydroxy-Δ^8-THC]
- Ki [2, 9]: 8.8 ± 1.4 nM
- Ki [3, 10]: 1.6 ± 0.03 nM
- Ratio CB1/CB2 ([3]; Table 1): 5.5

Molecule: CCCCCn1cc(C(=O)c2ccc(CC)c3ccccc23)c2ccccc21 [JWH-210, 1-Pentyl-3-(4-ethyl-1-naphthoyl)indole]
- Ki [2, 5]: 0.46 ± 0.03 nM
- Ki [3, 11]: 0.69 ± 0.01 nM
- Ratio CB17CB2 ([3]; Table 2): 0.67

Molecule: CCCn1cc(C(=O)c2ccc(CC)c3ccccc23)c2ccccc21 [JWH-212, 1-Propyl-3-(4-ethyl-1-naphthoyl)indole]
- Ki [2, 12]: 33 ± 0.9 nM
- Ki [3, 11]: 10 ± 1.2 nM
- Ratio CB17CB2 ([3]; Table 2): 3.3

Molecule: COc1cc(C(C)(C)C)cc2c1[C@@H]1CC(CO)=CC[C@H]1C(C)(C)O2 [Compound 11a, 1-Methoxy-3-(1′,1′-dimethylethyl)-11-hydroxy-Δ^8-THC]
- Ki [2]: 1860 ± 148 nM
- Ki [3, 8]: 333 ± 104 nM
- Ratio CB1/CB2 ([3]; Table 1): 5.6

Molecule: CCCc1ccc(C(=O)c2c(C)n(CCC)c3ccccc23)c2ccccc12 [JWH-189, 2-Methyl-1-propyl-3-(4-propyl-1-naphthoyl)indole]
- Ki [2, 12]: 52 ± 2 nM
- Ki [3, 11]: 12 ± 0.8 nM
- Ratio CB17CB2 ([3]; Table 2): 4.3

Molecule: CCCn1cc(C(=O)c2cccc3ccc(OC)cc23)c2ccccc21 [JWH-165, 1-Propyl-3-(7-methoxy-1-naphthoyl)indole]
- Ki [2, 5]: 204 ± 26 nM
- Ki [3, 6]: 71 ± 8 nM

Molecule: CCCCCn1c(C)c(C(=O)c2c(OC)ccc3ccccc23)c2ccccc21 [JWH-268, 2-Methyl-1-pentyl-3-(2-methoxy-1-naphthoyl)indole]
- Ki [2, 13]: 1380 ± 193 nM
- Ki [3, 6]: 40 ± 1 nM

Molecule: CCCCCn1cc(C(=O)c2ccc(CCC)c3ccccc23)c2ccccc21 [JWH-182, 1-Pentyl-3-(4-propyl-1-naphthoyl)indole]
- Ki [2, 12]: 0.65 ± 0.03 nM
- Ki [3, 11]: 1.1 ± 0.1 nM
- Ratio CB17CB2 ([3]; Table 2): 0.6

Molecule: CCCn1c(C)c(C(=O)c2ccc(C)c3ccccc23)c2ccccc21 [JWH-148, 2-Methyl-1-propyl-3-(4-methyl-1-naphthoyl)indole]
- Ki [2, 5]: 123 ± 8 nM
- Ratio CB17CB2 ([3]; Table 2): 8.8
- Ki [3, 6]: 14 ± 1 nM

Molecule: CCCn1c(C)c(C(=O)c2cccc3ccccc23)c2ccccc21 [JWH-015, 2-Methyl-1-propyl-3-(1-naphthoyl)indole]
- Emax ([1]; read-out: Emax (% CP-55940)): 65.7 ± 6.4%
- Emax [1, 4]: 65.7 ± 6.4%

Molecule: CCCCCn1cc(C(=O)c2c(OC)ccc3ccccc23)c2ccccc21 [JWH-267, 1-Pentyl-3-(2-methoxy-1-naphthoyl)indole]
- EC50 [1]: 4.9 ± 0.8 nM
- efficacy in the [35S]GTPγS assay relative to CP-55,940 [1]: partial agonists
- Emax ([1]; read-out: Emax (% CP-55940)): 67.3 ± 2.9%
- Ki [2, 5]: 381 ± 16 nM
- selectivity for the CB2 receptor [3]: 53 fold
- Ki [3, 8]: 7.35 nM
- Ki [3, 14]: 7.2 ± 0.14 nM

Molecule: CCCC(C)(C)c1cc(OC)c2c(c1)OC(C)(C)[C@@H]1CC=C(C)C[C@@H]21 [Compound 6c, 3-(1′,1′-Dimethylbutyl)-1-methoxy-Δ^8-THC]
- Ki [2]: > 10000 nM
- Ki ([3]; Ki CB2, Table 1, mean ± SEM, cloned human CB2, [3H]CP 55,940): 325 ± 70 nM
- Ki [3, 8]: 1870 ± 867 nM
- Ratio CB1/CB2 ([3]; Table 1): 31

Molecule: CCCCCn1c(C)c(C(=O)c2ccc(CC)c3ccccc23)c2ccccc21 [JWH-213, 2-Methyl-1-pentyl-3-(4-ethyl-1-naphthoyl)indole]
- Ki [2, 12]: 1.5 ± 0.2 nM
- Ki [3, 11]: 0.42 ± 0.05 nM
- Ratio CB17CB2 ([3]; Table 2): 3.6

Molecule: CCCCCC(C)(C)c1ccc2c(c1)OC(C)(C)C1CC=C(CO)CC21 (centres unmarked) [Compound 9e, 1-Deoxy-3-(1′,1′-dimethylhexyl)-11-hydroxy-Δ^8-THC]
- Ki [2, 5]: 1.8 ± 0.3 nM
- Ratio CB1/CB2 ([3]; Table 1): 3.5
- Ki [3, 6]: 0.52 nM

Molecule: CCCCCn1c(C)c(C(=O)c2cccc3cc(OC)ccc23)c2ccccc21 [JWH-153, 2-Methyl-1-pentyl-3-(6-methoxy-1-naphthoyl)indole]
- Ki [2]: 240 ± 24 nM
- Ki [2, 13]: 250 ± 24 nM
- Ki [3, 6]: 11 ± 1 nM

Molecule: CCCn1cc(C(=O)c2ccc(OCC)c3ccccc23)c2ccccc21 [JWH-259, 1-Propyl-3-(4-ethoxy-1-naphthoyl)indole]
- Ki [2, 5]: 220 ± 29 nM
- Ki [3, 6]: 74 ± 7 nM

Molecule: CCC(C)(C)c1cc(OC)c2c(c1)OC(C)(C)C1CC=C(C)CC21 (centres unmarked) [Compound 6b, 1-Methoxy-3-(1′,1′-dimethylpropyl)-Δ^8-THC]
- Ki [2, 9]: > 10000 nM
- Ki [3, 10]: 1400 ± 66 nM
- Ratio CB1/CB2 ([3]; Table 1): 7.1

Molecule: CCC(C)(C)c1cc(OC)c2c(c1)OC(C)(C)C1CC=C(CO)CC21 (centres unmarked) [Compound 11b, 1-Methoxy-3-(1′,1′-dimethylpropyl)-11-hydroxy-Δ^8-THC]
- Ki [2, 9]: 1010 ± 117 nM
- Ki [3, 10]: 85 ± 21 nM
- Ratio CB1/CB2 ([3]; Table 1): 12

Molecule: CCCn1c(C)c(C(=O)c2ccc(OCC)c3ccccc23)c2ccccc21 [JWH-261, 2-Methyl-1-propyl-3-(4-ethoxy-1-naphthoyl)indole]
- Ki [2, 5]: 767 ± 105 nM
- Ki [3, 6]: 221 ± 14 nM

Molecule: CCCCCn1cc(C(=O)c2ccc(CCCC)c3ccccc23)c2ccccc21 [JWH-240, 1-Pentyl-3-(4-butyl-1-naphthoyl)indole]
- Ki [2, 5]: 14 ± 1 nM
- Ratio CB17CB2 ([3]; Table 2): 1.9
- Ki [3, 6]: 7.2 ± 13 nM

Molecule: CCCCCn1cc(C(=O)c2ccc(OCC)c3ccccc23)c2ccccc21 [JWH-258, 1-Pentyl-3-(4-ethoxy-1-naphthoyl)indole]
- Ki [2, 5]: 4.6 ± 0.6 nM
- Ki [3, 6]: 10.5 ± 1.3 nM

Molecule: COc1cc(C(C)(C)C)cc2c1C1CC(C)=CCC1C(C)(C)O2 (centres unmarked) [Compound 6a, 1-Methoxy-3-(1′,1′-dimethylethyl)-Δ^8-THC]
- Ki [2, 9]: > 10000 nM
- Ratio CB1/CB2 ([3]; Table 1): 5.4
- Ki [3, 6]: 1870 ± 867 nM

Molecule: CCCn1c(C)c(C(=O)c2cccc3ccc(CC)cc23)c2ccccc21 [JWH-236, 2-Methyl-1-propyl-3-(7-ethyl-1-naphthoyl) indole]
- Ki [2, 5]: 1350 ± 204 nM
- Ratio CB17CB2 ([3]; Table 2): 5.6
- Ki [3, 6]: 240 ± 63 nM

Molecule: CCCCCC(C)(C)c1cc(OC)c2c(c1)OC(C)(C)C1CC=C(CO)CC21 (centres unmarked) [Compound 11e, 1-Methoxy-3-(1′,1′-dimethylhexyl)-11-hydroxy-Δ^8-THC]
- Ki [2, 5]: 15 nM and 14 nM
- Ratio CB1/CB2 ([3]; Table 1): 11
- Ki [3, 6]: 1.4 nM and 1.2 nM

Molecule: CCCCCn1c(C)c(C(=O)c2cccc3ccc(OC)cc23)c2ccccc21 [JWH-159, 2-Methyl-1-pentyl-3-(7-methoxy-1-naphthoyl)indole]
- Ki [2, 5]: 45 ± 1 nM
- Ki [3, 6]: 10.4 ± 1.4 nM

Molecule: CCCn1c(C)c(C(=O)c2ccc(CC)c3ccccc23)c2ccccc21 [JWH-211, 2-Methyl-1-propyl-3-(4-ethyl-1-naphthoyl)indole]
- Ki [2, 5]: 70 ± 0.8 nM
- Ratio CB17CB2 ([3]; Table 2): 5.8
- Ki [3, 6]: 12 ± 0.8 nM

Molecule: CCCCCn1cc(C(=O)c2cccc3ccc(OC)cc23)c2ccccc21 [JWH-164, 1-Pentyl-3-(7-methoxy-1-naphthoyl)indole]
- Ki [2, 5]: 6.6 ± 0.7 nM
- Ki [3, 6]: 6.9 ± 0.2 nM

Molecule: CCCn1cc(C(=O)c2cccc3ccc(C)cc23)c2ccccc21 [JWH-076, 1-Propyl-3-(7-methyl-1-naphthoyl)indole]
- Ki [2, 5]: 214 ± 11 nM
- Ratio CB17CB2 ([3]; Table 2): 2.0
- Ki [3, 6]: 106 ± 46 nM

Molecule: CCCCCn1c(C)c(C(=O)c2cccc3ccc(CC)cc23)c2ccccc21 [JWH-262, 2-Methyl-1-pentyl-3-(7-ethyl-1-naphthoyl)indole]
- Ki [2, 12]: 28 ± 3 nM
- Ki [3, 11]: 5.6 ± 0.7 nM
- Ratio CB17CB2 ([3]; Table 2): 5.0

Molecule: CCC(C)(C)c1ccc2c(c1)OC(C)(C)[C@@H]1CC=C(CO)C[C@@H]21 [Compound 9b, 1-Deoxy-3-(1′,1′-dimethylpropyl)-11-hydroxy-Δ^8-THC]
- Ki [2]: 187 ± 23 nM
- selectivity for the CB2 receptor [3]: 25 fold
- Ki [3, 8]: 5.6 ± 1.7 nM
- Ratio CB1/CB2 ([3]; Table 1): 33

Molecule: CCCCc1ccc(C(=O)c2cn(CCC)c3ccccc23)c2ccccc12 [JWH-239, 1-Propyl-3-(4-butyl-1-naphthoyl)indole]
- Ki [2, 5]: 342 ± 20 nM
- Ratio CB17CB2 ([3]; Table 2): 6.6
- Ki [3, 6]: 52 ± 6 nM

Molecule: CCCn1c(C)c(C(=O)c2cccc3cc(OC)ccc23)c2ccccc21 [JWH-151, 2-Methyl-1-propyl-3-(6-methoxy-1-naphthoyl)indole]
- EC50 [1]: 12 ± 2.9 nM
- efficacy in the [35S]GTPγS assay relative to CP-55,940 [1]: highly efficacious
- Emax ([1]; read-out: Emax (% CP-55940)): 108 ± 13%
- Emax [1, 4]: 108 ± 13%
- Ki [2]: > 10000 nM
- Ki [2, 7]: > 10000 nM
- selectivity for the CB2 receptor [3]: > 333 fold
- Ki [3, 6]: 30 ± 1 nM

Molecule: CCCCCn1c(C)c(C(=O)c2ccc(OCC)c3ccccc23)c2ccccc21 [JWH-260, 2-Methyl-1-pentyl-3-(4-ethoxy-1-naphthoyl)indole]
- Ki [2, 5]: 29 ± 0.4 nM
- Ki [3, 6]: 25 ± 1.9 nM

Molecule: CCCn1c(C)c(C(=O)c2cccc3ccc(OC)cc23)c2ccccc21 [JWH-160, 2-Methyl-1-propyl-3-(7-methoxy-1-naphthoyl)indole]
- Ki [2, 5]: 1570 ± 201 nM
- Ki [3, 14]: 441 ± 110 nM
